Measurements reported in PubChem BioAssay AID1918998 (Molecular Pharmacology Branch, DTP, NCI, 2023).

System: 521955-158-R2-J5-PDC complex spheroid growth
Assay: Anticancer human tumor 521955-158-R2-J5-PDC patient-derived pancreatic carcinoma cell line growth inhibition [AhR]
Conditions: for IC50: curve of first compound; for viability, T/C: stronger effect = lower value
Method in brief: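 Spheroids combined tumor cells with HUVEC endothelial cells and human MSCs as stroma. AhR antagonists were paired with standard or investigational drugs, each dosed in half-log steps down from near clinical Cmax, or from 10 microM where Cmax was unknown.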

[1] = second compound 0.1 µM, first compound 0.0316 µM
[2] = second compound 0.1 µM, first compound 0.1 µM
[3] = second compound 0.1 µM, first compound 0.316 µM
[4] = second compound 0.1 µM, first compound 1 µM
[5] = second compound 0.1 µM, first compound 3.16 µM
[6] = second compound 0.1 µM, first compound 10 µM
[7] = second compound 0.316 µM, first compound 0.0316 µM
[8] = second compound 0.316 µM, first compound 0.1 µM
[9] = second compound 0.316 µM, first compound 0.316 µM
[10] = second compound 0.316 µM, first compound 1 µM
[11] = second compound 0.316 µM, first compound 3.16 µM
[12] = second compound 0.316 µM, first compound 10 µM
[13] = second compound 1 µM, first compound 0.0316 µM
[14] = second compound 1 µM, first compound 0.1 µM
[15] = second compound 1 µM, first compound 0.316 µM
[16] = second compound 1 µM, first compound 1 µM
[17] = second compound 1 µM, first compound 3.16 µM
[18] = second compound 1 µM, first compound 10 µM
[19] = second compound 3.16 µM, first compound 0.0316 µM
[20] = second compound 3.16 µM, first compound 0.1 µM
[21] = second compound 3.16 µM, first compound 0.316 µM
[22] = second compound 3.16 µM, first compound 1 µM
[23] = second compound 3.16 µM, first compound 3.16 µM
[24] = second compound 3.16 µM, first compound 10 µM
[25] = second compound 10 µM, first compound 0.0316 µM
[26] = second compound 10 µM, first compound 0.1 µM
[27] = second compound 10 µM, first compound 0.316 µM
[28] = second compound 10 µM, first compound 1 µM
[29] = second compound 10 µM, first compound 3.16 µM
[30] = second compound 10 µM, first compound 10 µM
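For viability, T/C in this document: spheroids mix tumor cells with HUVEC endothelium and human MSC stroma; luminescence taken as viability surrogate after a week of drug exposure.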

Compound CC1(C)CCC(CN2CCN(c3ccc(C(=O)NS(=O)(=O)c4ccc(NCC5CCOCC5)c([N+](=O)[O-])c4)c(Oc4cnc5[nH]ccc5c4)c3)CC2)=C(c2ccc(Cl)cc2)C1 + Cc1ccccc1N=Nc1ccc(NC(=O)c2ccnn2C)c(C)c1 has an IC50 (second compound 0.1 µM) of over 10 µM, an IC50 (second compound 0.316 µM) of over 10 µM and an IC50 (second compound 1 µM) of over 10 µM. The IC50 (second compound 3.16 µM) was over 10 µM, the IC50 (second compound 10 µM) was over 10 µM and the viability, T/C [1] was 114%. It also gave a viability, T/C [2] of 140%, a viability, T/C [3] of 96.5% and a viability, T/C [4] of 102%. For the same compound, the viability, T/C [5] was 104%, the viability, T/C [6] was 103% and the viability, T/C [7] was 110%. It also gave a viability, T/C [8] of 99.9%, a viability, T/C [9] of 116% and a viability, T/C [10] of 108%. It also gave a viability, T/C [11] of 107%, a viability, T/C [12] of 96% and a viability, T/C [13] of 120%. It also gave a viability, T/C [14] of 144%, a viability, T/C [15] of 133% and a viability, T/C [16] of 116%. The viability, T/C [17] was 98.8%, the viability, T/C [18] was 94.5% and the viability, T/C [19] was 135%. For the same compound, the viability, T/C [20] was 155%, the viability, T/C [21] was 165% and the viability, T/C [22] was 119%. The viability, T/C [23] was 130%, the viability, T/C [24] was 84.6% and the viability, T/C [25] was 166%. For the same compound, the viability, T/C [26] was 162%, the viability, T/C [27] was 158% and the viability, T/C [28] was 151%. It also gave a viability, T/C [29] of 108% and a viability, T/C [30] of 72.6%.
Compound CCN(c1cc(-c2ccc(CN3CCOCC3)cc2)cc(C(=O)NCc2c(C)cc(C)[nH]c2=O)c1C)C1CCOCC1 + Cc1ccccc1N=Nc1ccc(NC(=O)c2ccnn2C)c(C)c1 has an IC50 (second compound 0.1 µM) of over 3 µM, an IC50 (second compound 0.316 µM) of over 3 µM and an IC50 (second compound 1 µM) of over 3 µM. For the same compound, the IC50 (second compound 3.16 µM) was over 3 µM, the IC50 (second compound 10 µM) was over 3 µM and the viability, T/C (second compound 0.1 µM, first compound 0.00949 µM) was 123%. It also gave a viability, T/C (second compound 0.1 µM, first compound 0.03 µM) of 110%, a viability, T/C (second compound 0.1 µM, first compound 0.0949 µM) of 103% and a viability, T/C (second compound 0.1 µM, first compound 0.3 µM) of 89.1%. For the same compound, the viability, T/C (second compound 0.1 µM, first compound 0.949 µM) was 74.4%, the viability, T/C (second compound 0.1 µM, first compound 3 µM) was 79.9% and the viability, T/C (second compound 0.316 µM, first compound 0.00949 µM) was 111%. The viability, T/C (second compound 0.316 µM, first compound 0.03 µM) was 106%, the viability, T/C (second compound 0.316 µM, first compound 0.0949 µM) was 110% and the viability, T/C (second compound 0.316 µM, first compound 0.3 µM) was 83.1%. The viability, T/C (second compound 0.316 µM, first compound 0.949 µM) was 76.6%, the viability, T/C (second compound 0.316 µM, first compound 3 µM) was 84.3% and the viability, T/C (second compound 1 µM, first compound 0.00949 µM) was 96.6%. For the same compound, the viability, T/C (second compound 1 µM, first compound 0.03 µM) was 113%, the viability, T/C (second compound 1 µM, first compound 0.0949 µM) was 97.2% and the viability, T/C (second compound 1 µM, first compound 0.3 µM) was 83.6%. It also gave a viability, T/C (second compound 1 µM, first compound 0.949 µM) of 95.7%, a viability, T/C (second compound 1 µM, first compound 3 µM) of 87.6% and a viability, T/C (second compound 3.16 µM, first compound 0.00949 µM) of 126%. It also gave a viability, T/C (second compound 3.16 µM, first compound 0.03 µM) of 128%, a viability, T/C (second compound 3.16 µM, first compound 0.0949 µM) of 128% and a viability, T/C (second compound 3.16 µM, first compound 0.3 µM) of 125%. The viability, T/C (second compound 3.16 µM, first compound 0.949 µM) was 102%, the viability, T/C (second compound 3.16 µM, first compound 3 µM) was 112% and the viability, T/C (second compound 10 µM, first compound 0.00949 µM) was 164%. For the same compound, the viability, T/C (second compound 10 µM, first compound 0.03 µM) was 153%, the viability, T/C (second compound 10 µM, first compound 0.0949 µM) was 166% and the viability, T/C (second compound 10 µM, first compound 0.3 µM) was 150%. For the same compound, the viability, T/C (second compound 10 µM, first compound 0.949 µM) was 126% and the viability, T/C (second compound 10 µM, first compound 3 µM) was 122%.
In the case of COc1cc(Nc2ncc3c(n2)-c2ccc(Cl)cc2C(c2c(F)cccc2OC)=NC3)ccc1C(=O)O + Cc1ccccc1N=Nc1ccc(NC(=O)c2ccnn2C)c(C)c1, the IC50 (second compound 0.1 µM) is reported as over 10 µM, the IC50 (second compound 0.316 µM) is reported as over 10 µM and the IC50 (second compound 1 µM) is reported as over 10 µM. It also gave an IC50 (second compound 3.16 µM) of over 10 µM, an IC50 (second compound 10 µM) of over 10 µM and a viability, T/C [1] of 81.3%. For the same compound, the viability, T/C [2] was 76%, the viability, T/C [3] was 69.8% and the viability, T/C [4] was 68.1%. For the same compound, the viability, T/C [5] was 63.8%, the viability, T/C [6] was 48.5% and the viability, T/C [7] was 89.5%. For the same compound, the viability, T/C [8] was 79.9%, the viability, T/C [9] was 72.4% and the viability, T/C [10] was 60.2%. The viability, T/C [11] was 71.4%, the viability, T/C [12] was 55.4% and the viability, T/C [13] was 109%. The viability, T/C [14] was 69.8%, the viability, T/C [15] was 74.3% and the viability, T/C [16] was 58.9%. It also gave a viability, T/C [17] of 62.1%, a viability, T/C [18] of 53.9% and a viability, T/C [19] of 98.6%. For the same compound, the viability, T/C [20] was 77%, the viability, T/C [21] was 68.3% and the viability, T/C [22] was 74.2%. For the same compound, the viability, T/C [23] was 74.7%, the viability, T/C [24] was 71.4% and the viability, T/C [25] was 122%. The viability, T/C [26] was 96.1%, the viability, T/C [27] was 94.6% and the viability, T/C [28] was 88.5%. For the same compound, the viability, T/C [29] was 83.4% and the viability, T/C [30] was 90.7%.
With Cn1ncnc1C1c2n[nH]c(=O)c3cc(F)cc(c23)NC1c1ccc(F)cc1 (stereo not given) + Cc1ccccc1N=Nc1ccc(NC(=O)c2ccnn2C)c(C)c1 the IC50 (second compound 0.1 µM) was over 0.1 µM, the IC50 (second compound 0.316 µM) was over 0.1 µM and the IC50 (second compound 1 µM) was over 0.1 µM. For the same compound, the IC50 (second compound 3.16 µM) was over 0.1 µM, the IC50 (second compound 10 µM) was over 0.1 µM and the viability, T/C (second compound 0.1 µM, first compound 0.000316 µM) was 110%. The viability, T/C (second compound 0.1 µM, first compound 0.001 µM) was 115%, the viability, T/C (second compound 0.1 µM, first compound 0.00316 µM) was 108% and the viability, T/C (second compound 0.1 µM, first compound 0.01 µM) was 103%. It also gave a viability, T/C [1] of 105%, a viability, T/C [2] of 75.4% and a viability, T/C (second compound 0.316 µM, first compound 0.000316 µM) of 111%. The viability, T/C (second compound 0.316 µM, first compound 0.001 µM) was 119%, the viability, T/C (second compound 0.316 µM, first compound 0.00316 µM) was 108% and the viability, T/C (second compound 0.316 µM, first compound 0.01 µM) was 98.5%. The viability, T/C [7] was 97.8%, the viability, T/C [8] was 89.1% and the viability, T/C (second compound 1 µM, first compound 0.000316 µM) was 111%. For the same compound, the viability, T/C (second compound 1 µM, first compound 0.001 µM) was 107%, the viability, T/C (second compound 1 µM, first compound 0.00316 µM) was 138% and the viability, T/C (second compound 1 µM, first compound 0.01 µM) was 118%. The viability, T/C [13] was 118%, the viability, T/C [14] was 115% and the viability, T/C (second compound 3.16 µM, first compound 0.000316 µM) was 140%. It also gave a viability, T/C (second compound 3.16 µM, first compound 0.001 µM) of 150%, a viability, T/C (second compound 3.16 µM, first compound 0.00316 µM) of 142% and a viability, T/C (second compound 3.16 µM, first compound 0.01 µM) of 154%. For the same compound, the viability, T/C [19] was 128%, the viability, T/C [20] was 128% and the viability, T/C (second compound 10 µM, first compound 0.000316 µM) was 158%. The viability, T/C (second compound 10 µM, first compound 0.001 µM) was 148%, the viability, T/C (second compound 10 µM, first compound 0.00316 µM) was 158% and the viability, T/C (second compound 10 µM, first compound 0.01 µM) was 146%. The viability, T/C [25] was 143% and the viability, T/C [26] was 141%.
Compound NS(=O)(=O)OCC1CC(n2ccc3c(NC4CCc5ccccc54)ncnc32)CC1O (stereo not given) + Cc1ccccc1N=Nc1ccc(NC(=O)c2ccnn2C)c(C)c1 has an IC50 (second compound 0.1 µM) of 1.36 µM, an IC50 (second compound 0.316 µM) of 1.22 µM and an IC50 (second compound 1 µM) of 0.941 µM. For the same compound, the IC50 (second compound 3.16 µM) was 0.821 µM, the IC50 (second compound 10 µM) was 0.343 µM and the viability, T/C [1] was 118%. For the same compound, the viability, T/C [2] was 115%, the viability, T/C [3] was 102% and the viability, T/C [4] was 56.7%. The viability, T/C [5] was 30.4%, the viability, T/C [6] was 20.8% and the viability, T/C [7] was 111%. The viability, T/C [8] was 105%, the viability, T/C [9] was 87.5% and the viability, T/C [10] was 53.5%. It also gave a viability, T/C [11] of 30.9%, a viability, T/C [12] of 21.9% and a viability, T/C [13] of 114%. It also gave a viability, T/C [14] of 111%, a viability, T/C [15] of 88.3% and a viability, T/C [16] of 47.6%. The viability, T/C [17] was 29.6%, the viability, T/C [18] was 23.7% and the viability, T/C [19] was 137%. It also gave a viability, T/C [20] of 110%, a viability, T/C [21] of 77.6% and a viability, T/C [22] of 45.2%. It also gave a viability, T/C [23] of 23.7%, a viability, T/C [24] of 21.8% and a viability, T/C [25] of 108%. It also gave a viability, T/C [26] of 91.2%, a viability, T/C [27] of 50.8% and a viability, T/C [28] of 32.1%. The viability, T/C [29] was 25.2% and the viability, T/C [30] was 25.6%.
